The source of these data is patent US20230293509A1, “METHOD AND COMPOUND FOR USE, IN TREATING AND/OR PREVENTING NETOSIS” (JUBILANT EPIPAD LLC, priority 2020, published 2023).

Series [1] deals with 4T1 cells. Put plainly: Murine breast cancer efficacy model, 4T1 allograft. The class given is in vivo, Balb/C female mice. The conditions noted are these: 4T1 bearing mice, oral gavage twice daily for 14 days. On the procedure:
(§1) PAD4 is highly expressed in malignant tumours of various cell types, Here, the mouse mammary carcinoma of 4T1 and EMT6 cells were used as an experimental model. Mouse 4T1, and EMT-6, a breast cancer cell line was sourced from American Type Culture Collection (ATCC), USA. Cells were grown according to the product information. To establish allografts, the cells were harvested by trypsinization when they reached around 70 to 80% confluence. After harvesting, Balb/C female mice (7-8 weeks) were implanted with 4T1 (1 million cells/site) and EMT-6 (0.5 million cells/site) subcutaneously in the dorsal right flank of mice using a 1 mL BD syringe attached to a 24-gauge needle. When the tumors became palpable tumor measurement was initiated and at an approximate tumor volume of ˜110 and 93 mm3, respectively. Animals were randomized into different treatment groups keeping tumor volume and the number of animals/group similar across the groups and compound 143 treatment was initiated. […]
(§2) Tumor dimensions (length and breadth) were measured on days 1 (animal randomization based on tumor volume) and thrice weekly thereafter until study termination.
(§3) Tumor volumes were calculated using the formula (b2*1)*0.52 where 1=length, b=breadth (Dusan Djokovic et al., BMC Cancer, 2010, 10:641). […]

Series [2] concerns EMT-6 cells. Put plainly: Murine breast cancer efficacy model, EMT-6 allograft. It is filed as in vivo, Balb/C female mice. The conditions noted are these: EMT-6 bearing mice, oral gavage twice daily for 13 days. The protocol:
as §1, §2, §3

For series [3], the system named is silica induced lung fibrosis. Put plainly: Silica induced pro-fibrotic lung model. It is filed as in vivo, C57BL/6 female mice. The note with it: 50 mg/kg PO, BID, day 7 to 11, comparable to Nintedanib 100 mg/kg, QD. The protocol:
The instillation of silica into the murine lung results in the development of fibrotic nodules that resemble simple silicotic nodular fibrosis, which develop in humans following some occupational exposures to dust and particulate aerosols. Silica can be delivered to rodents via aerosolization, intratracheal administration or oropharyngeal aspiration. C57BL/6 female mice at an age of 6-8 weeks were instilled with silica particles (2.5 mg/mouse) by non-surgical intratracheal (IT) method. The day of silica instillation was defined as day 0. Test compound was administered twice daily and standard of care was dosed once daily from day 7 to 11 for therapeutic intervention. Animals were monitored and evaluated for their clinical signs and body weight loss. Animals were euthanized on day 11 and the lungs were weighed and biomarkers were analyzed in lung.

The test system of series [4] is Bleomycin (BLM)-induced mice fibrosis. Put plainly: Bleomycin induced lung fibrosis model. The class given is in vivo, C57BL/6 male mice. The note with it: 50 mg/kg, PO, BID. The text has this: Bleomycin (BLM)-induced mice fibrosis is a well-established animal model used to study pathogenesis of lung fibrosis and to estimate the potential anti-fibrotic agents. C57BL/6 male mice at 6-8 weeks of age were purchased from vivo biotech India (under the license from Taconic). The procedures involving the care and use of animals in the study was reviewed and approved by the Institutional Animal Care and Use Committee (IAEC/JDC/2018-161R) prior to conduct. During the study, the care and use of animals was in accordance with the principles outlined in the Guide for the Care and Use of Laboratory Animals, 8th Edition, 2010 (National Research Council) and every effort was made to minimize suffering. The animals were acclimatized for 7 days prior to experimental use. Mice were caged with free access to food and fresh water in a temperature-controlled room (22° C.-24° C.) on a 12 h light/dark cycle. Pulmonary fibrosis was induced by invasive method in animals using single intra-tracheal administration of 50 μg bleomycin prepared in 50 μL of saline under isoflurane anaesthesia. […] Animals were monitored and evaluated for their body weight loss. […] Fibronectin was measured as a PD biomarker by RT-qPCR and fold change in mRNA level was calculated after normalizing to GAPDH. […] The Modified Ashcroft Index score was determined for the vehicle-treated control mice and the test compound treated mice.

Series [5] relates to DSS-induced colitis. The series can be described thus: Dextran sulfate sodium (DSS) induced colitis model. The class given is in vivo, C57BL/6 male mice. The conditions noted are these: 1 mg/kg, QD, oral; day 10. The text has this: Ulcerative colitis (UC) is an intermittent inflammatory bowel disease of the colonic mucosa, with periods of exacerbated symptoms (the active phase of the disease), and periods that are relatively symptom-free (remission phase of disease). Among various chemical induced colitis models, DSS-induced colitis model is widely used because of its simplicity and many similarities with human ulcerative colitis. C57BL/6 male mice at 6-8 weeks of age were purchased from vivo biotech India (under the license from Taconic). The procedures involving the care and use of animals in the study was reviewed and approved by the Institutional Animal Care and Use Committee (IAEC/JDC/2018-161R) prior to conduct. During the study, the care and use of animals was in accordance with the principles outlined in the Guide for the Care and Use of Laboratory Animals, 8th Edition, 2010 (National Research Council) and every effort was made to minimize suffering. The animals were acclimatized for ˜10 days prior to experimental use. Mice were caged with free access to food and fresh water in a temperature-controlled room (22° C.-24° C.) on a 12 h light/dark cycle. […]

As for `N[C@@H]1CCCN(C(=O)c2cc3c4c(c2)nc(-c2cc5cccc(Cl)c5n2CC2CC2)n4CCO3)C1` [Compound 143, (R)-(3-aminopiperidin-1-yl)(2-(7-chloro-1-(cyclopropylmethyl)-1H-indol-2-yl)-3,4-dihydro-5-oxa-1,2a-diazaacenaphthylen-7-yl)methanone], the Body weight changes result in series [1] and in series [2] was “no significant body weight changes” throughout. For the same compound, the “Fibronectin level in lung” value in series [3] was “significant decrease”. Besides, the Lung weight entry in series [3] is reported as “significant decrease”; in series [4] (day 0 to 14, compared with Nintedanib 100 mg/kg, QD) it was “reduction in lung weight comparable to standard of care Nintedanib”. The “Fibronectin mRNA in lung (RT-qPCR)” value in series [4] (day 0 to 14, compared with Nintedanib) was “stronger reduction of fibronectin mRNA as compared to Nintedanib”.
For the compound `CCCCCCCCc1ccc(CCC(N)(CO)CO)cc1` [Fingolimod], the “Disease reversal (DAI) compared to disease control” value in series [5] is listed as ~58.9%.
